Biological target: T1, human FXR (Homo sapiens, UniProt Q96RI1)
T1 construct: expressed in transfected cells; host or cells: HEK293 cells stably carrying a 5xGal4-response-element firefly luciferase reporter, transiently transfected with pcDNA3.1-Gal4-FXR
T1 sequence (Q96RI1 262-486 limits assumed): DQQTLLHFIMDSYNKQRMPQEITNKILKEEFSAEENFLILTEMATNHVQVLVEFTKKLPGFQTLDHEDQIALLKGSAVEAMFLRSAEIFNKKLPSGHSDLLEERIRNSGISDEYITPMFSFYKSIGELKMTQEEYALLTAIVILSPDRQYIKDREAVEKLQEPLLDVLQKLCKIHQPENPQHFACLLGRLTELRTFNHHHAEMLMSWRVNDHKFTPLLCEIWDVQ
Experiment: transient human FXR/Gal4-luciferase reporter assay
Format: cell-based
Settings: Gal4-hFXR LBD fusion, luciferase reporter in HEK293 cells; response relative to 8 μM GW-4064
How it was run: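 HEK293 cells stably carrying a 5×Gal4-response-element firefly luciferase reporter were transiently transfected with Gal4-hFXR. They were then incubated overnight at 37 °C with compound serial dilutions in medium containing 10% charcoal/dextran-stripped FBS. Luminescence was read after Steady-Glo addition.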

Structure (SMILES) | EC50 [nM]
CN1CCC(C(=O)N(CC23CCC(c4nc(C5CC5)no4)(CC2)CC3)c2cccc(-c3nc(C4CC4)no3)c2)CC1 [Example 17, N-((4-(3-cyclopropyl-1,2,4-oxadiazol-5-yl)bicyclo[2.2.2]octan-1-yl)methyl)-N-(3-(3-cyclopropyl-1,2,4-oxadiazol-5-yl)phenyl)-1-methylpiperidine-4-carboxamide] | 3020
COc1nccc(-c2cccc(N(CC34CCC(c5nc(C6CC6)no5)(CC3)CC4)C(=O)C3CCC(F)(F)CC3)c2)n1 [Example 85, N-((4-(3-cyclopropyl-1,2,4-oxadiazol-5-yl)bicyclo[2.2.2]octan-1-yl)methyl)-4,4-difluoro-N-(3-(2-methoxypyrimidin-4-yl)phenyl)cyclohexane-1-carboxamide] | 787
O=C(C1CCCCC1)N(CC12CCC(c3nc(C4CC4)no3)(CC1)CC2)c1cccc(-c2nc(C3CC3)no2)c1 [Example 13, N-((4-(3-cyclopropyl-1,2,4-oxadiazol-5-yl)bicyclo[2.2.2]octan-1-yl)methyl)-N-(3-(3-cyclopropyl-1,2,4-oxadiazol-5-yl)phenyl)cyclohexanecarboxamide] | 82
O=C(C1CCOCC1)N(CC12CCC(c3nc(C4CC4)no3)(CC1)CC2)c1cccc(-c2cc(C3CC3)no2)c1 [Example 153, N-((4-(3-cyclopropyl-1,2,4-oxadiazol-5-yl)bicyclo[2.2.2]octan-1-yl)methyl)-N-(3-(3-cyclopropylisoxazol-5-yl)phenyl)tetrahydro-2H-pyran-4-carboxamide] | 57
Cn1nc(C2CC2)cc1C12CCC(CN(C(=O)C3CCOCC3)c3cccc(-c4cc(C5CC5)no4)c3)(CC1)CC2 [Example 139, N-((4-(3-cyclopropyl-1-methyl-1H-pyrazol-5-yl)bicyclo[2.2.2]octan-1-yl)methyl)-N-(3-(3-cyclopropylisoxazol-5-yl)phenyl)tetrahydro-2H-pyran-4-carboxamide] | 87
O=C(C1CCOCC1)N(CC12CCC(c3nc(C4CC4)no3)(CC1)CC2)c1cccc(-c2cc(C3CC3)on2)c1 [Example 40, N-((4-(3-cyclopropyl-1,2,4-oxadiazol-5-yl)bicyclo[2.2.2]octan-1-yl)methyl)-N-(3-(5-cyclopropylisoxazol-3-yl)phenyl)tetrahydro-2h-pyran-4-carboxamide] | 78
COC(=O)C1CC1c1cccc(N(CC23CCC(c4nc(C)no4)(CC2)CC3)C(=O)C2CCCCC2)c1 (single isomer, unassigned) [Example 101, Methyl 2-(3-(N-((4-(3-methyl-1,2,4-oxadiazol-5-yl)bicyclo[2.2.2]octan-1-yl)methyl)cyclohexanecarboxamido)phenyl)cyclopropane-1-carboxylate] | 245
Cc1nc2ccc(-c3cccc(N(CC45CCC(c6nc(C7CC7)no6)(CC4)CC5)C(=O)C4CCCCC4)c3)cc2s1 [Example 90, N-((4-(3-cyclopropyl-1,2,4-oxadiazol-5-yl)bicyclo[2.2.2]octan-1-yl)methyl)-N-(3-(2-methylbenzo[d]thiazol-6-yl)phenyl)cyclohexanecarboxamide] | 36
CCOc1ncc(-c2cccc(N(CC34CCC(c5noc(C(C)(C)F)n5)(CC3)CC4)C(=O)c3ccc(OC(F)F)cc3)c2)cn1 [Example 144, 4-(difluoromethoxy)-N-(3-(2-ethoxypyrimidin-5-yl)phenyl)-N-((4-(5-(2-fluoropropan-2-yl)-1,2,4-oxadiazol-3-yl)bicyclo[2.2.2]octan-1-yl)methyl)benzamide] | 334
Cn1cc(-c2cccc(N(CC34CCC(c5nc(C6CC6)no5)(CC3)CC4)C(=O)C3CCCOC3)c2)nc1C1CC1 (racemic) [Example 68, N-((4-(3-cyclopropyl-1,2,4-oxadiazol-5-yl)bicyclo[2.2.2]octan-1-yl)methyl)-N-(3-(2-cyclopropyl-1-methyl-1H-imidazol-4-yl)phenyl)tetrahydro-2H-pyran-3-carboxamide] | 4100

Reference: patent US12227496B2 (BRISTOL-MYERS SQUIBB COMPANY, priority 2019, dated 2025)
